Measurements as given in publication PMC12930396, “Positive modulators of N-methyl-D-aspartate receptor: structure–activity relationship study on steroidal C-17 and C-20 oxime ethers” (RSC Advances, 2026).
“Also recorded” adds a separate entry of the source.

Tests used:
GluN1/GluN2B receptors [1] = molecular target: T1, GluN1/GluN2B receptors (Rattus norvegicus, UniProt P35439+Q00960); experiment: Patch-clamp: modulation of glutamate-induced currents of recombinant GluN1/GluN2B receptors expressed in HEK293 cells; assay type: cell-based
T1 construct: expressed in transfected cells; host or cells: HEK293 cells (ATCC No. CRL-1573)
T1 sequence (Q00960 27-1482, other chains not shown): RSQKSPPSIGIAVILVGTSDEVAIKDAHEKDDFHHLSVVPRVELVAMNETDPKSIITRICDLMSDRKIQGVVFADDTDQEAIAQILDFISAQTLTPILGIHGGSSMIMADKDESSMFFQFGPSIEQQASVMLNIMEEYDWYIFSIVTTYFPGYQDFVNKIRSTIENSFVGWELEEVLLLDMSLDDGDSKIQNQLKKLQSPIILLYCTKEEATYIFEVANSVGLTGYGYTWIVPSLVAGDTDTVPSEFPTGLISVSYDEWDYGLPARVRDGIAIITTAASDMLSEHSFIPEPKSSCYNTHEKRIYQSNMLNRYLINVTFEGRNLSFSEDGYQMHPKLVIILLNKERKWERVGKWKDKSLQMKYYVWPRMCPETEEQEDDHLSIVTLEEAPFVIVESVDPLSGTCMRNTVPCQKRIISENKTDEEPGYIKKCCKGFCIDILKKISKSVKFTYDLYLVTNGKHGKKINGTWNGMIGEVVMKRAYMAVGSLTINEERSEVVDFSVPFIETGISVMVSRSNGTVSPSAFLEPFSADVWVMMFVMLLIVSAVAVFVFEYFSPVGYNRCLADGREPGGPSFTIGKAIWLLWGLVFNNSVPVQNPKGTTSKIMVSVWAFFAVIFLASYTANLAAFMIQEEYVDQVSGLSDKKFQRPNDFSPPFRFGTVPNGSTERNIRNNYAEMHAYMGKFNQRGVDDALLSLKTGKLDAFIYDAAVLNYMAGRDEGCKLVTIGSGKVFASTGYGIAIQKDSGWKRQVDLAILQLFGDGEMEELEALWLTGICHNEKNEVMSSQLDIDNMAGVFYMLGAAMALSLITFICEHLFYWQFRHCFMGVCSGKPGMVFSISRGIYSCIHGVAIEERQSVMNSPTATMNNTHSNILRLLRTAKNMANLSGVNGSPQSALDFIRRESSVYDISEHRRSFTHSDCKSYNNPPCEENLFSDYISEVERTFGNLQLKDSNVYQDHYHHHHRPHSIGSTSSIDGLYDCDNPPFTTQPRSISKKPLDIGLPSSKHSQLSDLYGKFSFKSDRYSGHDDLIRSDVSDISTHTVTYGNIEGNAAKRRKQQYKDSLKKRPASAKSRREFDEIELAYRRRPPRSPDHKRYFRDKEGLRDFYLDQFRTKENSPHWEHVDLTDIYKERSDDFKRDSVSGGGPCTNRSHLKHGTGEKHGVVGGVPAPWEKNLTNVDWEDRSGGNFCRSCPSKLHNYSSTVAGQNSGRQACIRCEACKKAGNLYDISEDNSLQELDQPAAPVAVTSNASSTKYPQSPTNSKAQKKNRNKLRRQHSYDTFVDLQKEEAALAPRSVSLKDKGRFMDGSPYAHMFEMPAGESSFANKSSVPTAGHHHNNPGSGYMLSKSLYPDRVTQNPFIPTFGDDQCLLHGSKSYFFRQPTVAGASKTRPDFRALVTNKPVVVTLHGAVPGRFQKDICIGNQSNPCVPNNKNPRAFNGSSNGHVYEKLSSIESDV
Method: To investigate the effect of compounds 11–23 on the activity of NMDARs, electrophysiological measurements were performed on HEK293 cells that were co-transfected with cDNAs containing genes encoding for the rat GluN1-1a and GluN2B subunits. The degree of modulation (E; potentiation/inhibition) for the newly synthesized compounds was determined using the following formula: [drawing 1] where Ie is the value of the current amplitude during glutamate and compound coapplication, and Ia is the current amplitude value for glutamate application. […] The results are presented as mean ± standard error of the mean (SEM), with n equal to the number of independent measurements. One-way analysis of variance (ANOVA) was used for multiple comparisons (unless otherwise stated, a value of P ≤ 0.05 was used for the determination of significance).
We have evaluated the relationship between oxime derivatives 11–23 and their modulatory effect on recombinant GluN1/GluN2B receptors. Due to the […] effect of neurosteroid-based PAMs at NMDARs[20,44]
HEK293 cells (American Type Culture Collection, ATCC No. CRL-1573, Rockville, MD, USA) were cultured in Opti-MEM I (Invitrogen, Carlsbad, CA, USA) supplemented with 5% fetal bovine serum (FBS; PAN Biotech, Aidenbach, Germany) at 37 °C in 5% CO2. 24 h before transfection, HEK293 cells were plated in 24-well plates at a density of 2 × 10^5 cells per well. The next day, the cells were transfected with cDNA encoding rat GluN1-1a (GluN1; GenBank accession number U08261)[56] and GluN2B (GenBank accession number M91562)[57] subunits (in the pCI-neo expression vector), along with green fluorescent protein (GFP; in the pQBI 25 vector, Takara, Tokyo, Japan). Briefly, equal amounts (200 ng) of cDNAs encoding GluN1-1a, GluN2B, and GFP were mixed with 0.6 µl of Matra-A reagent (IBA, Gottingen, Germany) in 50 µL of Opti-MEM I and added to confluent HEK293 cells cultured in 24-well plates. After trypsinization, the cells were resuspended in Opti-MEM I containing 1% FBS, supplemented with 20 mM MgCl2, 1 mM D,L-2-amino-5-phosphonovaleric acid, 3 mM kynurenic acid, and 1 µM ketamine, and plated on 30 mm glass coverslips coated with collagen and poly-L-lysine. Transfected cells were identified by GFP epifluorescence. Electrophysiology experiments were performed 24–48 h after transfection.
Whole-cell current recordings, voltage-clamped at a holding potential of −60 mV, were performed at room temperature using a patch-clamp amplifier (Axopatch 200B; Molecular Devices, Sunnyvale, CA, USA) after capacitance and series resistance (<10 MΩ) compensation (80–90%). NMDAR current responses were low-pass filtered at 2 kHz, digitally sampled at 5 kHz, and analysed using pClamp software (version 10.6; Molecular Devices). Patch pipettes (3–5 MΩ), pulled from borosilicate glass, were filled with an intracellular solution (ICS) containing (in mM): 15 CsCl, 10 BAPTA, 3 MgCl2, 1 CaCl2, 120 gluconic acid, 10 HEPES, and 2 ATP-Mg salt (pH adjusted to 7.2 with CsOH). The extracellular solution (ECS) contained (in mM): 160 NaCl, 2.5 KCl, 0.2 EDTA, 10 glucose, 10 HEPES, and 0.7 CaCl2 (pH adjusted to 7.3 with NaOH). NMDAR responses were induced by 1 µM glutamate and 30 µM glycine. 1% DMSO was present in all control and testing solutions. Solution applications were performed using a microprocessor-controlled multibarrel fast-perfusion system with a solution exchange rate around the cells of ∼10 ms.[58]

in vitro [2] = settings: rat, microsomes, pH 7.4
Method: The reactions were terminated by the addition of four volumes of ice-cold methanol, mixed vigorously, and left at −20 °C for 1h. After that, the samples were centrifuged and the supernatants were analysed by means of ECHO-MS® System (Sciex, Framingham, MA, USA). Zero time points were prepared by adding ice-cold methanol to the mixture of the compound with cofactors before the addition of microsomes. […] Intrinsic clearance (CLint) was calculated using the following formula: [drawing 4] where V is the incubation volume per milligram of microsomal protein (µL mg^−1) and t1/2 is the microsomal half-life.

in vitro [3] = settings: for PAMPA permeability Retention (mass retention): 5 h, 100 µM
Method: Permeability was quantified using permeability coefficients (Pe) and mass retention, the latter representing the proportion of compound retained in the membrane.
Permeation experiments were conducted in polystyrene 96-well filter plates with PVDF membrane pre-coated with structured layers of phospholipids (Corning Gentest™) according to the manufacturer's instructions. Briefly, the plate was warmed to room temperature, and meanwhile, the solutions of the compounds were diluted from 10 mM DMSO stocks to TRIS–HCl buffer pH 7.4 to reach a 100 µM final concentration. The DMSO concentration in the samples was 1%. Then, 300 µL of these solutions were transferred into the donor (receiver) plate wells, and 200 µL of the (TRIS) buffer was added to the acceptor (filter) plate wells. The filter plate and receiver plate were assembled and incubated for 5 h on an orbital shaker (300 rpm). After this, the concentration of the tested substances in both the donor and acceptor compartments was determined with use of LC/MS. Liquid chromatography was performed using an ExionLC AD pump and autosampler from Sciex (Framingham, MA, USA). […] The mobile phase flow rate was 300 µL min^−1. The column Synergi Fusion-RP from Phenomenex (Torrance, CA, USA) was used and was kept at 40 °C during the analysis.

GluN1/GluN2B receptors [4] = settings: cited from earlier work; for EC50: read-out: EC50, potentiation of GluN1/GluN2B receptor responses
Stability in rat plasma = assay type: in vitro ADME; settings: rat, plasma
Method: Compounds were prepared as 1.6 mg mL^−1 stock solutions in methanol. Then, 20 µL of stock solution was added to 1000 µL of rat plasma (BioIVT, Cat. No. RAT00PLLH-0102307), maintained at 37 °C. Aliquots (50 µL) withdrawn at 0, 8, and 24 h were analyzed by HPLC. An aliquot of plasma was extracted with methanol (450 µL) containing an internal standard, and the solution was vortexed (20 s) and centrifuged at 13 500 rpm for 10 min. The supernatant was transferred to an autosampler vial, and 10 µL was injected into an LC-MS system. The samples were analyzed using an Agilent 6230 TOF LC/MS. Samples were separated on a Waters ACQUITY UPLC CSH Phenyl-Hexyl column (100 × 2.1, 130 Å, 1.7 µm) at a flow rate of 0.3 mL min^−1. […]. The temperature, the flow rate of the nitrogen drying gas, the pressure of the nitrogen nebulizing gas, and the flow rate of the sheath gas were set at 325 °C, 10 L min^−1, 40 psi, […], and 11 L min^−1, respectively. Results are represented as a percentage of the compound remaining in spiked plasma.

In the case of `C/C(=N\OCCN1CCOCC1)[C@H]1CCC2C3CC=C4C[C@@H](OC(=O)CCCC(=O)O)CC[C@]4(C)C3CC[C@@]21C` (stereo partly drawn) [Compound 13, 20-Oxo-pregn-5-en-3β-yl hemiglutarate O-(3-morpholinoethyl)oxime], the “h ± SEM (apparent Hill coefficient)” value (GluN1/GluN2B receptors [1]; concentration-response fit, mean ± SEM) is reported as 2.8 ± 0.2, the EC50 (GluN1/GluN2B receptors [1]; half-maximal potentiation of currents evoked by 1 µM glutamate, HEK293, mean ± SEM) is reported as 34.7 ± 4.2 µM and the Emax (GluN1/GluN2B receptors [1]; maximal potentiation of currents evoked by 1 µM glutamate and 30 µM glycine, HEK293, mean ± SEM) is reported as 111 ± 11%. The half-life at 10 µM (in vitro [2]) was > 1 h and the “PAMPA permeability Retention (mass retention)” value (in vitro [3]; pH 7.4) was 95%.

In the case of `C[C@]12CC[C@H](OC(=O)CCCCCCCC(=O)O)CC1=CCC1C2CC[C@]2(C)C(=O)CCC12` (stereo partly drawn) [Compound 9], the “Emax, potentiation of GluN1/GluN2B receptor responses” value (GluN1/GluN2B receptors [4]) is listed as 226% and the EC50 (GluN1/GluN2B receptors [4]) is listed as 32 µM.

For `CC[C@@H](C)[C@H]1CCC2C3CC[C@@H]4C[C@H](OS(=O)(=O)O)CC[C@]4(C)C3CC[C@@]21C` (stereo partly drawn) [Compound 1], the IC50 (GluN1/GluN2B receptors [4]; read-out: IC50, inhibition of currents of GluN1/GluN2B receptors) is given as 0.09 µM.

For `C[C@]12CC[C@H](OC(=O)CCCC(=O)O)CC1=CCC1C2CC[C@]2(C)C(=O)CCC12` (stereo partly drawn) [Compound 5], the “Emax, potentiation of GluN1/GluN2B receptor responses” value (GluN1/GluN2B receptors [4]) is listed as 154% and the EC50 (GluN1/GluN2B receptors [4]) is listed as 151 µM.

With `C[C@]12CC[C@H](OC(=O)CCCC(=O)O)CC1=CCC1C2CC[C@]2(C)/C(=N/O)CCC12` (stereo partly drawn) [Compound 14, 17-Oxo-androst-5-en-3β-yl 3-hemiglutarate 17-oxime] the “Modulatory profile at NMDARs” value (GluN1/GluN2B receptors [1]; GluN1/GluN2B in HEK293) was “not identified as PAMs; also recorded: lost its PAM-activity”, the half-life at 10 µM (in vitro [2]) was > 1 h and the “PAMPA permeability” value (in vitro [3]) was “moderate permeability”. The “PAMPA permeability Retention (mass retention)” value (in vitro [3]; pH 7.4) was 17%, the Papp at 5 h, 100 µM (in vitro [3]; PAMPA, pH 7.4) was 263 nm/s and the “Stability in rat plasma (% remaining) 8 h” value (Stability in rat plasma; 8 h) was 61.1 ± 1.6 % remaining. The “Stability in rat plasma (% remaining) 24 h” value (Stability in rat plasma; 24 h) was 56.3 ± 2.5 % remaining.

For `C[C@]12CC[C@H](OC(=O)CCCCC(=O)O)CC1=CCC1C2CC[C@]2(C)C(=O)CCC12` (stereo partly drawn) [Compound 6], the “Emax, potentiation of GluN1/GluN2B receptor responses” value (GluN1/GluN2B receptors [4]) is listed as 180% and the EC50 (GluN1/GluN2B receptors [4]) is listed as 108 µM.

In the case of `C[C@]12CC[C@H](OC(=O)CCCCCCCCC(=O)O)CC1=CCC1C2CC[C@]2(C)C(=O)CCC12` (stereo partly drawn) [Compound 10], the “Emax, potentiation of GluN1/GluN2B receptor responses” value (GluN1/GluN2B receptors [4]) is given as 165% and the EC50 (GluN1/GluN2B receptors [4]) is given as 16 µM.
